Assay results reported in ChEMBL document CHEMBL1201862, “PubChem BioAssay data set” (2004).
Calls of active or inactive are those of the source.

Experiments:
Leucine aminopeptidase = biological target: T1, Leucine aminopeptidase (Plasmodium falciparum 3D7, UniProt Q8IL11); assay: P. falciparum M17LAP inhibitors, primary screen, biochemical, fluorogenic H-Leu-NHMec substrate, 1536-well (AID 1619); format: functional
T1 sequence (Q8IL11 whole entry): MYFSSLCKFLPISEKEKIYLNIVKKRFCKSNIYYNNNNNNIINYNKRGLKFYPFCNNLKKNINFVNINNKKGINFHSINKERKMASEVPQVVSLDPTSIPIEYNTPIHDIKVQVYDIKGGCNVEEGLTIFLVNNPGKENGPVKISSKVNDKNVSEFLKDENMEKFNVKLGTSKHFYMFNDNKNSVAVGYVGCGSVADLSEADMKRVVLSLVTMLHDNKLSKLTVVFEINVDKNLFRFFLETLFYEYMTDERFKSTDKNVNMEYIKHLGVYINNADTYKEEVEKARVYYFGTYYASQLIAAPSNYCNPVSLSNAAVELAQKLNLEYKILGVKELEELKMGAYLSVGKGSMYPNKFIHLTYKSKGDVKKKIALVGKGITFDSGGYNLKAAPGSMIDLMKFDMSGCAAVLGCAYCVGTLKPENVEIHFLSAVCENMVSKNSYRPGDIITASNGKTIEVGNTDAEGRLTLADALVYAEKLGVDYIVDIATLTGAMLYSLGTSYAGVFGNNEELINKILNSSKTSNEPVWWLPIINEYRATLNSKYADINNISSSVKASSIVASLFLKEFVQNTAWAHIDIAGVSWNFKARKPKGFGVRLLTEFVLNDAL

[1] = Vero E6 cell cytotoxicity, dose response, cytotoxicity control for non-replicating M. tuberculosis project, secondary assay (AID 492998); format: functional, VeroE6; conditions: Vero C1008
H9c2 = assay: cells; format: functional, cell-based; conditions: Rattus norvegicus, H9c2, Myocardium;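 further: confirmatory concentration-response retest of ultra-high-throughput screening hits for modulation of myocardial damage; cell death induced by hydrogen peroxide oxidative stress; compound pretreatment for 60 min then peroxide exposure for 2 h; potency is for protecting the cells against peroxide damage rather than for killing them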
cells = format: functional
[2] = THP-1 cell cytotoxicity, dose response, cytotoxicity control for non-replicating M. tuberculosis project (AID 489025); format: functional
[3] = HepG2 cell cytotoxicity, dose response, cytotoxicity control for non-replicating M. tuberculosis project (AID 489018); format: functional; conditions: Mycobacterium tuberculosis
Genome polyprotein = Genome polyprotein (dengue virus type 2, UniProt P29990); assay: flavivirus cap methylation enzyme inhibition – biochemical, confirmation dose response, primary screen (AID 588689); format: functional
[4] = microbe, parasite or virus in culture; format: functional; conditions: Mycobacterium tuberculosis
[5] = NIH-3T3 fibroblast cytotoxicity, dose response, cytotoxicity control, cell-based, fluorescence, Alamar Blue, secondary assay (AID 2327); format: functional;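 further: NIH-3T3 mouse fibroblasts cultured with fluconazole at 8 µg/mL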
[6] = fluconazole-exposed Candida albicans growth modulators – fluorescence, retest, confirmation (AID 2467); format: functional, cell-based
Estrogen receptor beta [7] = biological target: T2, Estrogen receptor beta (Homo sapiens, UniProt Q92731); assay: blockers of SRC-3 recruitment to ERβ – biochemical, ELISA, streptavidin-HRP readout, orthogonal assay, confirmation (AID 1060)
[8] = biological target: T3, Histone-lysine N-methyltransferase NSD2 (Homo sapiens, UniProt O96028); format: biochemical
T3 sequence (O96028 whole entry): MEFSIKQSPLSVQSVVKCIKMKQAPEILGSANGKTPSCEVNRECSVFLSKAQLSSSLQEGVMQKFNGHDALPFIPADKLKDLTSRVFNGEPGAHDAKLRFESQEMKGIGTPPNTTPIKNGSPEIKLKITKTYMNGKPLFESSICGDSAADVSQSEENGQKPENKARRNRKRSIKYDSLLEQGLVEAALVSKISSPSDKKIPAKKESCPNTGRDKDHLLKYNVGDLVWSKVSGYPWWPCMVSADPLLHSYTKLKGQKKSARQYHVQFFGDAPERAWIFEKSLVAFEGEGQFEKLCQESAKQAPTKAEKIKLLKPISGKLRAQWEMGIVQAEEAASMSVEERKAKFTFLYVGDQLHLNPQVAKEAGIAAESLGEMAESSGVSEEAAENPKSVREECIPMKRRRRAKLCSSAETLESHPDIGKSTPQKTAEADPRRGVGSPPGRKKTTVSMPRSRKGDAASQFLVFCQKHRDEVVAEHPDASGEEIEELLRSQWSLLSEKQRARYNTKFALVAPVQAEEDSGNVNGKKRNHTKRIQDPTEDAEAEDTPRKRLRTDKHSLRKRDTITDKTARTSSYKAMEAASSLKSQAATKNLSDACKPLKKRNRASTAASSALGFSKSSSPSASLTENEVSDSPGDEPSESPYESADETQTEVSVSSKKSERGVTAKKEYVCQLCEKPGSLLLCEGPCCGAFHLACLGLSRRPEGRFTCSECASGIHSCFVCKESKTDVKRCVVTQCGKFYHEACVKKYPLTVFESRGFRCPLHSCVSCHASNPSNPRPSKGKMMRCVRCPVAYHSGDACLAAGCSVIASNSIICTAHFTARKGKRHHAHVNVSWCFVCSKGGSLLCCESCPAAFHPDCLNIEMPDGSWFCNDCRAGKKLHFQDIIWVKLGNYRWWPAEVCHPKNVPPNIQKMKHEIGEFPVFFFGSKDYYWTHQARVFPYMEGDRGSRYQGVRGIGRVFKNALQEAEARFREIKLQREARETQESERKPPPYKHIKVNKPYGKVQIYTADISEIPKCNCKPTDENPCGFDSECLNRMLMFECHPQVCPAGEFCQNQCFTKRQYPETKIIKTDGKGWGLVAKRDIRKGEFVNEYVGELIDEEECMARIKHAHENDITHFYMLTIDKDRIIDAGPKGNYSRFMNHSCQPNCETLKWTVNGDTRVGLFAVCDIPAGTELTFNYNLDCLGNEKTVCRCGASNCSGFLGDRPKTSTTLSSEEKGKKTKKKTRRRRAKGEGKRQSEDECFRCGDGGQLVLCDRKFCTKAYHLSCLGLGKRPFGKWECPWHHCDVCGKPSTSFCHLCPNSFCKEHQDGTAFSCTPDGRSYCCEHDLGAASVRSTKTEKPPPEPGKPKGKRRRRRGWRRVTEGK

[9] = biological target: T4, DNA repair protein RAD52 homolog (Homo sapiens, UniProt P43351); format: functional, biochemical
T4 sequence (P43351 whole entry): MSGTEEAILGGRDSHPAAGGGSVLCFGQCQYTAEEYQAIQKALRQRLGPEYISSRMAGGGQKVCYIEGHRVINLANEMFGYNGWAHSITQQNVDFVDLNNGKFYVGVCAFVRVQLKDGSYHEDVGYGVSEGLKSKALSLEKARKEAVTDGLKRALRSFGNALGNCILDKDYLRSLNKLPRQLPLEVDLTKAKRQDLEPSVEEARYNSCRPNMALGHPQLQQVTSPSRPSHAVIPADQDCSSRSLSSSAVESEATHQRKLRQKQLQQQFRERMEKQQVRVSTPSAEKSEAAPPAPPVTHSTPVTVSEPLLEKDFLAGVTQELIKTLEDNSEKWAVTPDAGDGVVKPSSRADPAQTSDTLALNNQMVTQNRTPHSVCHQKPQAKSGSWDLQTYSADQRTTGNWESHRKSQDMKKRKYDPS

[10] = biological target: T5, DNA repair and recombination protein RAD54-like (Homo sapiens, UniProt Q92698); assay: RAD54 Holliday junction migration blockers – biochemical, fluorescence, cherry-picked samples, dose series, confirmation (AID 651657); format: functional
T5 sequence (Q92698 whole entry): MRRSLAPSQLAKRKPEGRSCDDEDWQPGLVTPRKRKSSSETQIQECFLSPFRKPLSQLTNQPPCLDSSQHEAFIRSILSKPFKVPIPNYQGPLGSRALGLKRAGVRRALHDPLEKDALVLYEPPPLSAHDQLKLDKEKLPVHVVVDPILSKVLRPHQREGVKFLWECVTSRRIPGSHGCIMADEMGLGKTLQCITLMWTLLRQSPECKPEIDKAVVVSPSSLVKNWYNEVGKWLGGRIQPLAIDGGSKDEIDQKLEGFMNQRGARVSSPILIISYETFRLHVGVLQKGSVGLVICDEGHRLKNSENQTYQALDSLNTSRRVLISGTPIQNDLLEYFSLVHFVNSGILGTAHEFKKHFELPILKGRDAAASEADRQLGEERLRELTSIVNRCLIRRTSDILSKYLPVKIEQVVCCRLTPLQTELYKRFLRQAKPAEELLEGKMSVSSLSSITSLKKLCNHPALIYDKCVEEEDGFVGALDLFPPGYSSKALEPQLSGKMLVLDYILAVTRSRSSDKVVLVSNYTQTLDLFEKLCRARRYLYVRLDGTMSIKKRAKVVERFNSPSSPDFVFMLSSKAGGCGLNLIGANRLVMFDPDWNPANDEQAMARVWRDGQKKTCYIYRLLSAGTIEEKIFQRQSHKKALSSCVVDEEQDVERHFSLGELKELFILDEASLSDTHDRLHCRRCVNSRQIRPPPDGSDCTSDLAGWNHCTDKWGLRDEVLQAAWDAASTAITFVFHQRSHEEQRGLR

Estrogen receptor beta [11] = biological target: T2, Estrogen receptor beta
[12] = HCT116 cell viability decrease, GSK3B pretreatment – CellTiter-Glo, IC50, dose response (AID 1117339); format: functional; conditions: HCT-116
[13] = RKO cell viability reduction, dose response, CellTiter-Glo luminescence (AID 1117322); format: functional
[14] = cytotoxicity toward HT-29 cells – cell-based, CellTiter-Glo luminescence, IC50, dose response (AID 1117330); format: functional
[15] = cytotoxicity toward HCT116 cells – cell-based, CellTiter-Glo luminescence, IC50, dose response (AID 1117332); format: functional; conditions: HCT-116
[16] = cytotoxicity toward Colo320 cells – cell-based, CellTiter-Glo luminescence, IC50, dose response (AID 1117334); format: functional; conditions: COLO 320
[17] = Reduced DLD-1 viability, concentration-response, CellTiter-Glo luminescence (AID 1117352); format: functional
[18] = CellTiter-Glo luminescence survival assay, SW480 colon tumor line, concentration-response curve, half-maximal inhibitory concentration (AID 1117338); format: functional
[19] = SNU-C1 cell viability reduction, dose response, CellTiter-Glo luminescence (AID 1117323); format: functional, cell-based
[20] = blockade of melanocortin 4 receptor signaling – cell-based, plate reader, cherry pick, counter-screen for LGR2 antagonist project, dose response (AID 743444); format: functional;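 further: transfected HEK 293 cells stimulated with alpha-MSH peptide; potency of inhibitors of the alpha-MSH evoked signal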
[21] = A549 cell cytotoxicity, dose response, cytotoxicity control, plate reader, cherry-pick, antagonist series (AID 743412); format: functional, cell-based

T2 sequence (Q92731 whole entry): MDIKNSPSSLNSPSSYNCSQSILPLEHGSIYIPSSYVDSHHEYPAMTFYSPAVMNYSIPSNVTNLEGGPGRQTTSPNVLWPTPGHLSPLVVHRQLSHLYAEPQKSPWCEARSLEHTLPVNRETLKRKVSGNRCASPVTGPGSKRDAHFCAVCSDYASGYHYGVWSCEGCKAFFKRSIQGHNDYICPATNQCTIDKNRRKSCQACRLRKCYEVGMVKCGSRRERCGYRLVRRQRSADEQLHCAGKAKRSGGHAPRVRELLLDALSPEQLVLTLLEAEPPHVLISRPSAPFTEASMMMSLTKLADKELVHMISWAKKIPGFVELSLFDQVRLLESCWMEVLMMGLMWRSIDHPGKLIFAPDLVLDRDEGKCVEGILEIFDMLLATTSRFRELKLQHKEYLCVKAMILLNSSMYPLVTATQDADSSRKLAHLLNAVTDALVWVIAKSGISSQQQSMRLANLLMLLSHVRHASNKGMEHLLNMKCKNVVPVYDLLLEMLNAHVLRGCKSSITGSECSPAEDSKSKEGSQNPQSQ
Sequence of Genome polyprotein (P29990 2492-3391 limits assumed): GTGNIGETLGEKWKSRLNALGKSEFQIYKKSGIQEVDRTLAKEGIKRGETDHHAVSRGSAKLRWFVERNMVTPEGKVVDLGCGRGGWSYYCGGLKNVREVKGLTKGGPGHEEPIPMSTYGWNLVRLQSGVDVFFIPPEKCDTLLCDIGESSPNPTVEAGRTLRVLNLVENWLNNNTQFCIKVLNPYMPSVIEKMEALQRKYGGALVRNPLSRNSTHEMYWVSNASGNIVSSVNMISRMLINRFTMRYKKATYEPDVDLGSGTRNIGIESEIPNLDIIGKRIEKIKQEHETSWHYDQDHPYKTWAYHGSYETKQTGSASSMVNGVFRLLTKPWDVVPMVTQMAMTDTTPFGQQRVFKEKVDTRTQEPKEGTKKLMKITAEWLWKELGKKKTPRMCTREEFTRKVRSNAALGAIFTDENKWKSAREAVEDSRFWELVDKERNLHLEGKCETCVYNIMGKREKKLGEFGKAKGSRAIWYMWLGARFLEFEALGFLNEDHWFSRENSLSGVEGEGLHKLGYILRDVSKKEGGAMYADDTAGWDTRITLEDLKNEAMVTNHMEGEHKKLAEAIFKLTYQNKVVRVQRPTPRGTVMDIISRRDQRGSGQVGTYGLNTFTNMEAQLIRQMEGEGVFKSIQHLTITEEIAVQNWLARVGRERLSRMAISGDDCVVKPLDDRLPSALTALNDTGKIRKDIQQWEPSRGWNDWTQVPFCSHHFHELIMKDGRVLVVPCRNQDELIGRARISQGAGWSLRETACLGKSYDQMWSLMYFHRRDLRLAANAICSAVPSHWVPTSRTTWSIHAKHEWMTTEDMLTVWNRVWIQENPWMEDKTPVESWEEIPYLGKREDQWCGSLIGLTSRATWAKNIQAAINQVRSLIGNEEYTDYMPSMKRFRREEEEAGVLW

| Structure (SMILES) | IC50 [12] | IC50 [13] | IC50 [14] | IC50 [15] | IC50 [16] | IC50 [17] | IC50 [18] | IC50 [19] | other results |
| --- | --- | --- | --- | --- | --- | --- | --- | --- | --- |
| O=C(O)COc1ccccc1/C=C1\SC(=O)N(Cc2ccc(F)cc2)C1=O | – | – | – | – | – | – | – | – | IC50 (Leucine aminopeptidase): 34.8 µM (active) |
| CCOC(=O)Cc1c(C)nc2c(-c3ccc(Cl)cc3)cnn2c1O | – | – | – | – | – | – | – | – | CC50 [1]: 17.5 µM (active); IC50 (H9c2): > 79 µM (inactive); IC50 (cells): 6.28 µM (active); CC50 [2]: 29 µM (active); CC50 [3]: > 20 µM (active) |
| O=C(O)CCc1nnc(SCC(=O)Nc2ccc(Br)cc2)nc1O | – | – | – | – | – | – | – | – | IC50 (Leucine aminopeptidase): 2.45 µM (active) |
| CCCCCCSc1nc(O)c(C2OC(=O)c3c2ccc(OC)c3OC)c(=O)n1CC (stereo unspecified) | – | – | – | – | – | – | – | – | IC50 (Genome polyprotein): 56.9 µM (active); IC50 (Leucine aminopeptidase): 3 µM (active) |
| CCCCN(C)S(=O)(=O)c1ccc(C(=O)Nc2nnc(-c3ccco3)o2)cc1 | – | – | – | – | – | – | – | – | CC50 [4]: 11.6 µM (active); CC50 [1]: 6.27 µM (active); IC50 (cells): 6.64 µM (active); EC50 [5]: > 160 µM (inconclusive); EC50 [6]: 2.63 µM (active); CC50 [2]: 10.5 µM (active); CC50 [3]: 12.5 µM (active) |
| COCCOC(=O)c1c(C)oc2ccc(NS(=O)(=O)c3ccc(C(=O)O)cc3)cc12 | – | – | – | – | – | – | – | – | IC50 (Estrogen receptor beta [7]): 3.82 µM (not active) |
| CCN(CC)CCNc1nc(SC)nc2sc3c(c12)CCN(C)C3 | – | – | – | – | – | – | – | – | AC50 [8]: > 20 µM (inactive); AC50 [9]: 5.18 µM (active); AC50 [10]: 95.3 µM (active) |
| Cc1cc(C)c(C(=O)COc2cccnc2[N+](=O)[O-])cc1C | – | – | – | – | – | – | – | – | IC50 (Estrogen receptor beta [7]): > 50 µM (not active); IC50 (Estrogen receptor beta [11]): 7.21 µM (active) |
| COC(=O)C1=C(C)NC(C)=C(C(=O)O[C@@H]2CCCN(Cc3ccccc3)C2)[C@@H]1c1cccc([N+](=O)[O-])c1 | 5.31 µM (inactive) | 8.05 µM (inactive) | 5.27 µM (inactive) | 4.28 µM (active) | 19.5 µM (inactive) | 7.96 µM (inactive) | > 20 µM (inactive) | 5.76 µM (inactive) | – |
| O=C(Cc1ccncc1)NCC[C@H]1CC[C@H](NC(=O)C2CCCC2)[C@H](CO)O1 | – | – | – | – | – | – | – | – | AC50 [20]: 42.1 µM (active); AC50 [21]: > 52 µM (inactive) |
| CC1(C)[C@H](C=C(Cl)Cl)[C@@H]1C(=O)OCc1c(F)c(F)cc(F)c1F | > 20 µM (inactive) | > 20 µM (inactive) | > 20 µM (inactive) | > 20 µM (inactive) | > 20 µM (inactive) | > 20 µM (inactive) | > 20 µM (inactive) | > 20 µM (inactive) | – |
| CCCCC[C@@H](O)CC[C@H]1[C@@H]2Cc3cccc(OCC(=O)O)c3C[C@@H]2C[C@@H]1O | > 20 µM (inactive) | > 20 µM (inactive) | > 20 µM (inactive) | > 20 µM (inactive) | > 20 µM (inactive) | > 20 µM (inactive) | > 20 µM (inactive) | > 20 µM (inactive) | – |
| CCCCN1CCCC1C(=O)Nc1c(C)cc(C)cc1C (stereo unspecified) [BUMECAINE] | > 20 µM (inactive) | > 20 µM (inactive) | > 20 µM (inactive) | > 20 µM (inactive) | > 20 µM (inactive) | > 20 µM (inactive) | > 20 µM (inactive) | > 20 µM (inactive) | – |
